Where a SMILES comes first, the peptide text is derived from it. Where no end group is shown, it is not given here. [ ]: non-standard residue; d: D form. The star is where a group is joined. FITC = O=C1OC2(c3ccc(O)cc3Oc3cc(O)ccc32)c2ccc(NC(=S)*)cc21; pS = N[C@@H](COP(=O)(O)O)C(=O)O; Ahx = NCCCCCC(=O)O

Data set [1] concerns the target T1, Pin1 (Homo sapiens, UniProt Q13526).
T1 construct: His6 (TEV-cleavable) (N, cleaved yes); host or cells: E. coli BL21 (DE3)
Put plainly: Chymotrypsin-coupled Pin1 PPIase assay (suc-AEPF-pNA). The format is biochemical. The following applies: in the absence of PKA, 4°C, pH 7.8. On the procedure: To perform the FP and enzymatic activity assays, Pin1 was phosphorylated by incubation of 40 μM Pin1 with 10,000 units of cAMP‐dependent protein kinase (PKA) (New England BioLabs) in kinase buffer (50 mM Tris‐HCl, 10 mM MgCl2, 1 mM DTT, and pH 7.5) supplemented with 2 mM adenosine triphosphate (ATP) (New England BioLabs) at 37°C. At 1 min, 1 h, 3 h, 8 h, 12 h, 18 h, 24 h, and 32 h, aliquots were taken, and PKA activity was stopped by addition of 20 mM EDTA, and the samples were kept at −80°C prior to analysis.
Pin1 (phosphorylated or non‐phosphorylated, 80 nM), in buffer containing 35 mM HEPES, pH 7.8, was incubated with 30 mg/mL ice‐cold chymotrypsin (diluted in 1 mM HCl) (Sigma‐Aldrich) and 2.5 mM of PPIase substrate (Suc‐AEPF‐pNA in 460 mM LiCl in trifluoroethanol) (#SAP‐3947‐PI, Vivitide) in a 1 mL cuvette. pNA release was measured at 4°C for 1 min on a Cary 300 UV–visible spectrophotometer using an absorption wavelength at 390 nm.
The data were collected in triplicate and analyzed using GraphPad Prism 7. The data were reported as the mean ± standard error of the mean.

In data set [2] the test system is cAMP-dependent protein kinase (PKA). Put plainly: Native MS of Pin1 phosphorylation by PKA. The format is biochemical. The following applies: 30°C, pH 6.8, mean ± SD, triplicate. On the procedure: (§1) To phosphorylate Pin1 for the native MS analysis, Pin1 (10 μM) was incubated at 30°C with 2 mM ATP, 10 mM MgCl2 (BDH Laboratory supplies), and 10,000 units PKA in 100 mM ammonium acetate pH 6.8 for 1, 3, 8, and 24 h. The concentration of PKA and Pin1 was optimized in order to detect sequential phosphorylation within the time course. At each time‐point, aliquots were taken, the reaction quenched by addition of EDTA (final concentration 20 mM), and the sample buffer exchanged using 3 kDa Amicon Ultra 0.5 mL centrifugal concentrators into 100 mM ammonium acetate pH 6.8 prior to MS analysis. Phosphorylation assays at each time‐point were carried out in triplicates, and the error was reported as the standard deviation.
(§2) All native MS was performed on a QExactive HF mass spectrometer (Thermo Fisher Scientific) equipped with a nanoelectrospray ionization source that used gold‐coated borosilicate glass capillaries, pulled in‐house. Positive ionization mode was used throughout, with the capillary voltage set to 1.2 kV. The source temperature was set at 250°C, in source dissociation at 0, S‐lens RF at 100. The Pin1 concentration was set to 2.5 μM and a mass range of 1500–4000 m/z was acquired. Mass spectra were acquired using a maximum ion injection time of 100 ms. The automatic gain control was set to 1 x 10^6 and the ions detected in the orbitrap with resolution set to 15,000. All data were analyzed using XCalibur (version 4.2). To quantify the abundance of unphosphorylated, phosphorylated Pin1 and Pin1‐Pintide complexes, the relative abundance of the peaks corresponding to the specific 9+, 8+, and 7+ Pin1 species of interest was summed and expressed as a percentage of all Pin1‐containing peaks detected.

Data set [3] shares this test system. Briefly: LC-MS/MS phosphosite occupancy of Pin1 upon incubation with PKA (Lys-C digestion). It is filed as biochemical. The following applies: triplicate. On the procedure:
as §1
Phosphorylated Pin1 was digested with either trypsin (Promega) or the endoproteinase Lys‐C (Promega) at a 1:50 ratio of enzyme: protein. To localize the phosphorylation sites, trypsin digestion was performed. To quantify the phosphosite occupancy over the phosphorylation time‐course, differentially phosphorylated Pin1 was digested with Lys‐C. For both enzymatic reactions, Pin1 was digested in 100 mM ammonium bicarbonate pH 8.0 for 3 h at 37°C, and the reaction was quenched by the addition of formic acid (2% v/v final concentration). All peptides were separated using an UltiMate 3000 HPLC series, which was either coupled to a QExactive HF or Orbitrap Eclipse mass spectrometer (Thermo Fisher Scientific). […] To quantify the extent of phosphorylation on Pin1, MS/MS was performed on the QExactive HF mass spectrometer. […]
To quantify the abundance of phosphorylated peptides, the retention time of the eluted peptides was identified using Proteomic Discoverer v.2.5. Spectra were averaged across the peptides chromatographic peak, and the percentage of phosphorylated peptide was calculated as a percentage of the total abundance of unphosphorylated and phosphorylated peptide. Full details of the peptides used for quantitation are detailed in the Supporting Information (Table S4).

Data set [4] has the same test system. Put plainly: LC-MS/MS (EThcD) of additional Pin1 phosphosites after PKA incubation (trypsin digestion). As to conditions: 24 h with PKA, not consistently detected across timepoints. It is filed as biochemical. On the procedure: Phosphorylated Pin1 was digested with either trypsin (Promega) or the endoproteinase Lys‐C (Promega) at a 1:50 ratio of enzyme: protein. To localize the phosphorylation sites, trypsin digestion was performed. To quantify the phosphosite occupancy over the phosphorylation time‐course, differentially phosphorylated Pin1 was digested with Lys‐C. For both enzymatic reactions, Pin1 was digested in 100 mM ammonium bicarbonate pH 8.0 for 3 h at 37°C, and the reaction was quenched by the addition of formic acid (2% v/v final concentration). All peptides were separated using an UltiMate 3000 HPLC series, which was either coupled to a QExactive HF or Orbitrap Eclipse mass spectrometer (Thermo Fisher Scientific). Peptides were desalted on a PepMap100 C18 nanoViper trap column (75 μM x 2 cm, […] particle size) (Thermo Fisher Scientific) and separated with a PepMap100 C18 nanoViper analytical column (75 μM x 15 cm, […] particle size) (Thermo Fisher Scientific) using mobile phase A (H2O and 0.1% formic acid) and mobile phase B (100% acetonitrile and 0.1% formic acid) and eluted using a gradient from […] to 44% B over 30 min. The column flow rate was set to 350 nL/min with the column temperature set at 40°C. To quantify the extent of phosphorylation on Pin1, MS/MS was performed on the QExactive HF mass spectrometer. […]
To prevent phospho‐loss resulting in misassignment of the phosphosite location (Boersema et al., [2009]), electron transfer dissociation with supplemental HCD (EThcD) was performed on the trypsin‐digested peptides to localize the phosphosites. […] ETD was performed using an automatically determined reagent time set based on precursor charge state. […] Fragment ions were detected in the Orbitrap using a resolution setting of 30,000. […]
All RAW files were processed and analyzed using Proteome Discoverer version 2.5. […] Additional phosphosites, Ser58, Ser65, and Ser67 (Table S4) were detected after 24 h of incubation with PKA, however, these were not consistently detected across all timepoints and, therefore, were excluded from phosphosite quantitation. […]

Data set [5] concerns the target T1, Pin1. Put plainly: Fluorescence polarization, FITC-Pintide binding to Pin1. As to conditions: fluorescently labelled Pintide 10 nM; FP, room temperature, 5 mM HEPES pH 7.4, 30 mM NaCl, 0.1% Tween20, 1% DMSO; triplicates; read-out: apparent Kd (Pin1 titration to fluorescently labelled Pintide). On the procedure: FP experiments were conducted using a fluorescein (FITC)‐labeled “Pintide” [5‐FITC‐(Ahx)‐WFY(pS)PFLE‐CONH2] purchased from China Peptides. FP data were collected at room temperature in buffer containing 5 mM HEPES pH 7.4, 30 mM NaCl, 0.1% v/v Tween20, and 1% v/v DMSO using Corning black, round‐bottom, low‐binding 384‐well plates. For all experiments, a fixed concentration of 10 nM fluorescently labeled Pintide and 40 μM of Pin1 protein was used. All plates were incubated for 10 min and shaken for 10 s before polarization was measured using a CLARIOstar Plus microplate reader with an excitation wavelength of 482/16 nm and an emission wavelength of 530/40 nm; dichroic mirror 504; flashes: 200. All data were analyzed using GraphPad Prism 7, and sigmoidal curves were fitted using the following Equation: Y=Bottom+Top−Bottom/1+10^Logt1/2−X*HillSlope. where Y = mP value, X = time, and Top and bottom = plateaus in mP.
Figure S1. (a) Fluorescence polarisation data for Pin1 titration to fluorescently labelled Pintide (10 nM). The apparent Kd was 0.7 µM. […] (b) Fluorescence polarisation control data showing polarisation, mP values, for the fluorescently labelled Pintide alone (Only Pintide, black), PKA in the presence of Pintide without Pin1 at 1 min and 24 h time points, and Pin1 in the presence of Pintide without PKA at 1 min and 24 h time points. […]
(In general: Polarisation of emitted light reports the rotation of a fluorescent probe.)

Data set [6] has as its target T1, Pin1. Put plainly: Native MS of Pintide bound to differentially phosphorylated Pin1. The following applies: for % Pintide bound: 2.5 μM : 25 μM Pin1 : Pintide, 100 mM ammonium acetate, mean ± SD, triplicate. It is filed as binding. On the procedure:
as §1
Unlabeled Pintide [AcHN‐WFY(pS)PFLE‐CONH2] was purchased from China Peptides and dissolved in 100 mM ammonium acetate pH 8 to a final concentration of 1 mg/mL and stored at −80°C until use. To determine the affinity of […] for differentially phosphorylated Pin1, Pintide was added to each Pin1 phosphorylation time‐point at a 2.5 μM: 25 μM Pin1 to Pintide ratio and the sample was directly infused into the mass spectrometer. Experiments were carried out in triplicates, and the error was reported as the standard deviation.
as §2

For data set [7], the target named is Pin1 phosphorylated at Ser71 (singly phosphorylated Pin1) (UniProt Q13526). Briefly: fluorescence polarisation; time course: Pin1 (40 uM) incubated with PKA and ATP at 37 C for 1 min to 32 h, stopped with 20 mM EDTA, then 10 nM FITC-Pintide; room temperature, 5 mM HEPES pH 7.4, 30 mM NaCl, 0.1% Tween20, 1% DMSO; control without PKA.
Pin1 phosphorylated at Ser71 (singly phosphorylated Pin1), sequence (Q13526 whole entry): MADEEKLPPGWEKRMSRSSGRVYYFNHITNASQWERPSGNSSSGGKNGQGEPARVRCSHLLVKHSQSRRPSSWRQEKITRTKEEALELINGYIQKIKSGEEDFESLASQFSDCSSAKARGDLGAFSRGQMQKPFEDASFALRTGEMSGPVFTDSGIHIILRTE

T1 sequence (Q13526 whole entry): as above

Consider “Pin1: peptidyl‐prolyl cis‐trans isomerase comprising N-terminal WW domain and C-terminal PPIase domain”, for which the “absorption at 390 nm upon addition of Pin1 to the substrate (catalytic activity)” value with Pin1 [1] is “increased”. Besides, the “relative abundance of doubly phosphorylated Pin1” value in data set [2] (3 h incubation with PKA) was ~ 65 ± 23%. Besides, in data set [2] (8 h incubation with PKA), the “relative abundance of doubly phosphorylated Pin1” value is 85% ± 11. Also, in data set [2] (24 h incubation with PKA), the “relative abundance of Pin1 with two phosphorylation sites” value is given as 95% ± 0.01. In addition, in data set [3] (1 h incubation with PKA), the “phosphorylation occupancy of Ser16” value is listed as 4% and the “phosphorylation occupancy of Ser71” value is listed as ~ 90%. Besides, the “phosphorylation occupancy of Ser16” value in data set [3] (24 h incubation with PKA) was ~ 80%. For the same molecule, in data set [4], the “Phosphorylation Stoichiometry (24h), Ser58” value is reported as 0.19; the “Phosphorylation Stoichiometry (24h), Ser65” value was 0.05; the “Phosphorylation Stoichiometry (24h), Ser67” value is given as 0.05.
As to `CC(C)C[C@H](NC(=O)[C@H](Cc1ccccc1)NC(=O)[C@@H]1CCCN1C(=O)[C@H](COP(=O)(O)O)NC(=O)[C@H](Cc1ccc(O)cc1)NC(=O)[C@H](Cc1ccccc1)NC(=O)[C@H](Cc1c[nH]c2ccccc12)NC(=O)CCCCCNC(=S)Nc1ccc2c(c1)C(=O)OC21c2ccc(O)cc2Oc2cc(O)ccc21)C(=O)N[C@@H](CCC(=O)O)C(N)=O` [FITC‐Pintide, 5‐FITC‐(Ahx)‐WFY(pS)PFLE‐CONH2] ({FITC-Ahx}-WFY[pS]PFLE-NH2), on Pin1 [5], the Kd stood at 700 nM.
Turning to AcHN‐WFY(pS)PFLE‐CONH2 [Pintide], the “% Pintide bound” value at Pin1 [6] (0 phosphosites on Pin1) was 39 ± 5%; on Pin1 [6] (1 phosphosite on Pin1, * p <0.05 (ANOVA, Tukey HSD)), 26 ± 6* %; on Pin1 [6] (2 phosphosites on Pin1, ** p <0.01 (ANOVA, Tukey HSD)), 4 ± 1** %. Besides, the “Pin1 binding to Pintide” value at Pin1 [6] (Pin1 phosphorylated at Ser71, versus unphosphorylated, native MS) is on record as “small, yet significant, difference”.

B1: FITC-Pintide [5-FITC-(Ahx)-WFY(pS)PFLE-CONH2] (peptide)
peptide: WFY[pS]PFLE-NH2
modifications: not fully specified (N-terminus); printed as 5‐FITC‐(Ahx)‐WFY(pS)PFLE‐CONH_2_
Molecule B1 yielded a % of binding inhibited after 1 h with PKA in data set [7] of 16%.
